Data published in patent US12410133B2, “Crystalline (r)-5-carbamoylpyridin-3-yl-2-methyl-4-(3-(trifluoromethoxy)benzyl)piperazine-1-carboxylate, compositions and methods of use thereof” (Celgene Corporation, priority 2018, dated 2025).

Key:
Type in all cases: physicochemical
[1] = Log D7.4 by shake-flask method (pH 7.4 phosphate buffer and n-octanol); conditions: n-octanol/pH 7.4 phosphate buffer
Experimental: (§1) A summary of baseline solid state characterization results of crystalline (R)-5-carbamoylpyridin-3-yl-2-methyl-4-(3-(trifluoromethoxy)benzyl)piperazine-1-carboxylate Form A, including pKa, partition coefficient (log D7.4) measurement and 2-hrs equilibrium solubility in FaSSIF and FeSSIF (version 2) are provided herein. […] Log D7.4 was measured with the solvent system of pH 7.4 phosphate buffer and n-octanol by shake-flask method. Meanwhile, 2-hrs equilibrium solubility of (R)-5-carbamoylpyridin-3-yl-2-methyl-4-(3-(trifluoromethoxy)benzyl)piperazine-1-carboxylate in FaSSIF and FeSSIF (version 2) was measured to be 0.12 and 0.080 mg/mL.

[2] = pKa detection by Sirius T3; conditions: Sirius T3, range 2.0 to 12.0, in triplicate; read-out: Measured pKa value
Experimental: as §1

[3] = Accelerated solid-state stability study of Form A
Experimental: Solid-state stability evaluation (accelerated conditions) was performed on Form A under conditions of 25° C./60% RH and 40° C./75% RH. The detailed procedure utilized for stability evaluation is listed below:
1) weigh approximately 30 mg of Form A sample into each 3-mL vial;
2) cover the vial with Parafilm® and poke 15 holes on the Parafilm® with a needle;
3) put the vial in a stability chamber of 25° C./60% RH or 40° C./75% RH; and
4) sample for XRPD, TGA, DSC, HPLC purity and assay tests after 2, 4 and 6 weeks and 3 months.

C[C@@H]1CN(Cc2cccc(OC(F)(F)F)c2)CCN1C(=O)Oc1cncc(C(N)=O)c1 [Form A, (R)-5-carbamoylpyridin-3-yl-2-methyl-4-(3-(trifluoromethoxy)benzyl)piperazine-1-carboxylate]
logD [1]: 3.76 | pKa [2]: 5.79 | API (RRT 1.00) ([3]; 2 weeks, 25° C./60% RH): 99.84 % Area | Assay vs. 5° C. control ([3]; 2 weeks, 25° C./60% RH): 101.2% | Crystal form ([3]; 2 weeks, 25° C./60% RH): Form A | HPLC Purity ([3]; 2 weeks, 25° C./60% RH): 99.84 area % | Imp.1 (RRT 0.81) ([3]; 2 weeks, 25° C./60% RH): 0.07 % Area | Imp.2 (RRT 1.04) ([3]; 2 weeks, 25° C./60% RH): — (—: <0.05.) | Imp.3 (RRT 1.74) ([3]; 2 weeks, 25° C./60% RH): 0.09 % Area | API (RRT 1.00) ([3]; 2 weeks, 40° C./75% RH): 99.78 % Area | Assay vs. 5° C. control ([3]; 2 weeks, 40° C./75% RH): 98.1% | Crystal form ([3]; 2 weeks, 40° C./75% RH): Form A | HPLC Purity ([3]; 2 weeks, 40° C./75% RH): 99.78 area % | Imp.1 (RRT 0.81) ([3]; 2 weeks, 40° C./75% RH): 0.08 % Area | Imp.2 (RRT 1.04) ([3]; 2 weeks, 40° C./75% RH): 0.07 % Area | Imp.3 (RRT 1.74) ([3]; 2 weeks, 40° C./75% RH): 0.07 % Area | API (RRT 1.00) ([3]; 3 months, 25° C./60% RH): 99.86 % Area | Assay vs. 5° C. control ([3]; 3 months, 25° C./60% RH): 97.3% | Chiral Purity ([3]; 3 months, 25° C./60% RH): 100 | Crystal form ([3]; 3 months, 25° C./60% RH): Form A | HPLC Purity ([3]; 3 months, 25° C./60% RH): 99.86 area % | Imp.1 (RRT 0.81) ([3]; 3 months, 25° C./60% RH): 0.09 % Area | Imp.3 (RRT 1.74) ([3]; 3 months, 25° C./60% RH): 0.05 % Area | API (RRT 1.00) ([3]; 3 months, 40° C./75% RH): 99.86 % Area | Assay vs. 5° C. control ([3]; 3 months, 40° C./75% RH): 96.9% | Chiral Purity ([3]; 3 months, 40° C./75% RH): 100 | Crystal form ([3]; 3 months, 40° C./75% RH): Form A | HPLC Purity ([3]; 3 months, 40° C./75% RH): 99.86 area % | Imp.1 (RRT 0.81) ([3]; 3 months, 40° C./75% RH): 0.09 % Area | Imp.3 (RRT 1.74) ([3]; 3 months, 40° C./75% RH): 0.05 % Area | API (RRT 1.00) ([3]; 4 weeks, 25° C./60% RH): 99.86 % Area | Assay vs. 5° C. control ([3]; 4 weeks, 25° C./60% RH): 101.4% | Crystal form ([3]; 4 weeks, 25° C./60% RH): Form A | HPLC Purity ([3]; 4 weeks, 25° C./60% RH): 99.86 area % | Imp.1 (RRT 0.81) ([3]; 4 weeks, 25° C./60% RH): 0.07 % Area | Imp.2 (RRT 1.04) ([3]; 4 weeks, 25° C./60% RH): — (—: <0.05.) | Imp.3 (RRT 1.74) ([3]; 4 weeks, 25° C./60% RH): 0.07 % Area | API (RRT 1.00) ([3]; 4 weeks, 40° C./75% RH): 99.86 % Area | Assay vs. 5° C. control ([3]; 4 weeks, 40° C./75% RH): 101.3% | Crystal form ([3]; 4 weeks, 40° C./75% RH): Form A | HPLC Purity ([3]; 4 weeks, 40° C./75% RH): 99.86 area % | Imp.1 (RRT 0.81) ([3]; 4 weeks, 40° C./75% RH): 0.07 % Area | Imp.2 (RRT 1.04) ([3]; 4 weeks, 40° C./75% RH): — (—: <0.05.) | Imp.3 (RRT 1.74) ([3]; 4 weeks, 40° C./75% RH): 0.07 % Area | API (RRT 1.00) ([3]; 6 weeks, 25° C./60% RH): 99.86 % Area | Assay vs. 5° C. control ([3]; 6 weeks, 25° C./60% RH): 99.7% | Crystal form ([3]; 6 weeks, 25° C./60% RH): Form A | HPLC Purity ([3]; 6 weeks, 25° C./60% RH): 99.86 area % | Imp.1 (RRT 0.81) ([3]; 6 weeks, 25° C./60% RH): 0.07 % Area | Imp.2 (RRT 1.04) ([3]; 6 weeks, 25° C./60% RH): — (—: <0.05.) | Imp.3 (RRT 1.74) ([3]; 6 weeks, 25° C./60% RH): 0.07 % Area | API (RRT 1.00) ([3]; 6 weeks, 40° C./75% RH): 99.86 % Area | Assay vs. 5° C. control ([3]; 6 weeks, 40° C./75% RH): 99.2% | Crystal form ([3]; 6 weeks, 40° C./75% RH): Form A | HPLC Purity ([3]; 6 weeks, 40° C./75% RH): 99.86 area %
